# Measurements from US9687522B2, “Methods of treating a subject afflicted with an autoimmune disease using predictive biomarkers of clinical response to glatiramer acetate therapy in multiple sclerosis” (TEVA PHARMACEUTICAL INDUSTRIES, LTD., priority 2010, dated 2017).
# Columns and labels:
# Format in all cases: in vivo, human
# IL-18 = experiment: Serum IL-18 by ELISA in GA-treated MS patients
# From the text: (§1) Approximately 60 cc of blood was obtained by venipuncture from each MS patient pre-treatment and at successive time points during treatment (3 months, 6 months, 9-12 months and 24 months). PBMC were purified using Ficoll-Hypaque gradients as described in the supplier's protocol (ICN Biomedicals Inc. Ohio, USA). Samples from collaborating centers were sent via overnight FedEx™ delivery at room temperature and processed immediately upon arrival.
# (§2) Interleukin-18 and caspase-1 levels were detected by human ELISA kits (Sandwich ELISA, Bender Nedaystems, USA). The sensitivity of the ELISA was 9.2 and 3.3 pg/ml for IL-18 and caspase-1 respectively. TGF-β, TNF-α, IL-4, IFN-γ, IL-17 and IL-10 levels were detected by human ELISA kits from ebioscience (San Diego Calif., 92121 USA). The sensitivity of the ebioscience kits were 60 pg/ml, 4 pg/ml, 2 pg/ml, 4 pg/ml, 4 pg/ml and 2 pg/ml respectively. BDNF was detected by the Human BDNF ELISA kit from Chemicon International (catalog #CYT306). The sensitivity of the BDNF ELISA was 7.8 pg/ml. […] Duplicates should be within 20% of the mean.
# TGF-β = experiment: Serum TGF-β by ELISA in GA-treated MS patients
# From the text: as §1, §2
# IL-4 = experiment: Serum IL-4 by ELISA in GA-treated MS patients
# From the text: as §1, §2
# [1] = tested on: relapsing-remitting MS (RR-MS) patients; experiment: Prospective 2-year study of GA-treated RR-MS patients: ARR and EDSS
# Method: This is a prospective study in which sixty-two relapsing-remitting MS (RR-MS) patients treated with GA were classified clinically as GA-R (N=42) or GA-HR/NR (N=20) after 2 years of treatment. Cytokine levels, brain-derived neurotrophic factor (BDNF) levels, and T-cell proliferation to GA were analyzed at baseline, 3, 6, 9-12 and 24 months and assessed for their predictive value of clinical response after 2 years of treatment.
# Sixty-two patients diagnosed with definite RR-MS (relapsing-remitting MS) according to the McDonald criteria (33) were included in the study. Following recruitment, the patients were treated with GA for at least 2 years. Subjects were closely followed up at the University of Medicine and Dentistry New Jersey (UMDNJ)-Robert Wood Johnson Medical School, University of Maryland Center for MS, the Gimbel MS Center, Teaneck, N.J. and the Carolina Medical Center-MS Center, Charlotte, N.C. Fifty patients were females with a mean age of 41±10.3 years and 12 were males with a mean age of 39.0±11.9 years. Patients had at least one relapse during the year prior to initiation of GA therapy (Table 2). After at least 2 years on GA therapy, patients were classified as GA-R (n=42) or GA-HR/NR (n=20) based on a clinical criteria more stringent than those recently reported in the literature. (34) A responder (R) is a patient with an annual relapse rate (ARR)<0.5 and no evidence of disease progression as measured by EDSS (expanded disability status scale). A hypo/non-responder (HR/NR) is a patient with an ARR>0.5 and/or with progression in the EDSS of at least 1 point sustained for 6 months (Table 3).
# The patients were classified as GA-responders or hypo/non-responders after being treated with GA for at least 24 months, based on their ARR and progression in disability while on treatment (Tables 1 and 3). The mean disease duration was 8.3±6.1 years for the GA-R group and 12.2±8.2 years for GA-HR/NR group. The mean treatment duration was 26.4±6.6 months for the GA-R group and 26.1±5.9 months for the GA-HR/NR group.
# BDNF = experiment: Serum BDNF by ELISA in GA-treated MS patients; settings: GA-R and GA-HR/NR, all treatment time points
# From the text: as §1, §2
substance,measurement,setting,value
Glatiramer acetate [GA],Serum IL-18 level,"IL-18; HR/NR, 3 mo",284 ± 35 pg/mL
same,Serum IL-18 level,"IL-18; HR/NR, 6 mo",310 ± 39 pg/mL
same,Serum IL-18 level,"IL-18; HR/NR, 9-12 mo",283 ± 22 pg/mL
same,Serum IL-18 level,"IL-18; HR/NR, 24 mo",265 ± 15 pg/mL
same,Serum IL-18 level,"IL-18; HR/NR, Pre-Rx",300 ± 29 pg/mL
same,Serum IL-18 level,"IL-18; R, 3 mo",279 ± 23 pg/mL
same,Serum IL-18 level,"IL-18; R, 6 mo",189 ± 26 pg/mL
same,Serum IL-18 level,"IL-18; R, 9-12 mo",262 ± 15 pg/mL
same,Serum IL-18 level,"IL-18; R, 24 mo",260 ± 12 pg/mL
same,Serum IL-18 level,"IL-18; R, Pre-Rx",304 ± 26 pg/mL
same,"Δ IL-18 6 months, Median (Non-Responders)","IL-18; serum, change from baseline",2
same,"Δ IL-18 6 months, Median (Responders)","IL-18; serum, change from baseline",−102
same,Serum TGF-β level,"TGF-β; HR/NR, 3 mo",1921 ± 150 pg/mL
same,Serum TGF-β level,"TGF-β; HR/NR, 6 mo",1723 ± 147 pg/mL
same,Serum TGF-β level,"TGF-β; HR/NR, 9-12 mo",1727 ± 97 pg/mL
same,Serum TGF-β level,"TGF-β; HR/NR, 24 mo",1844 ± 53 pg/mL
same,Serum TGF-β level,"TGF-β; HR/NR, Pre-Rx",1796 ± 95 pg/mL
same,Serum TGF-β level,"TGF-β; R, 3 mo",1908 ± 70 pg/mL
same,Serum TGF-β level,"TGF-β; R, 6 mo",1968 ± 75 pg/mL
same,Serum TGF-β level,"TGF-β; R, 9-12 mo",1901 ± 64 pg/mL
same,Serum TGF-β level,"TGF-β; R, 24 mo",1983 ± 93 pg/mL
same,Serum TGF-β level,"TGF-β; R, Pre-Rx",1774 ± 48 pg/mL
same,Serum IL-4 level,"IL-4; HR/NR, 3 mo",13 ± 0.92 pg/mL
same,Serum IL-4 level,"IL-4; HR/NR, 6 mo",13 ± 1.4 pg/mL
same,Serum IL-4 level,"IL-4; HR/NR, 9-12 mo",18 ± 1.4 pg/mL
same,Serum IL-4 level,"IL-4; HR/NR, 24 mo",16 ± 1 pg/mL
same,Serum IL-4 level,"IL-4; HR/NR, Pre-Rx",14 ± 0.70 pg/mL
same,Serum IL-4 level,"IL-4; R, 3 mo",16 ± 0.70 pg/mL
same,Serum IL-4 level,"IL-4; R, 6 mo",17 ± 0.81 pg/mL
same,Serum IL-4 level,"IL-4; R, 9-12 mo",17 ± 1.8 pg/mL
same,Serum IL-4 level,"IL-4; R, 24 mo",16 ± 1.0 pg/mL
same,Serum IL-4 level,"IL-4; R, Pre-Rx",16 ± 0.60 pg/mL
same,"Δ IL-4 6 months, Median (Non-Responders)","IL-4; serum, change from baseline",−1.5
same,"Δ IL-4 6 months, Median (Responders)","IL-4; serum, change from baseline",1
same,Mean ARR,"[1]; GA-HR/NR, 24 mo Rx",0.75 ± 0.50
same,Mean EDSS,"[1]; GA-HR/NR, 24 mo Rx",3.2 ± 1.37
same,Mean ARR,"[1]; GA-HR/NR, Pre-Rx",0.80 ± 0.49
same,Mean EDSS,"[1]; GA-HR/NR, Pre-Rx",1.95 ± 0.95
same,increase in the EDSS,"[1]; GA-HR/NR, during treatment",1.12 point
same,reduction in the ARR,"[1]; GA-HR/NR, during treatment",6.25%
same,Mean ARR,"[1]; GA-R, 24 mo Rx",0.14 ± 0.25
same,Mean EDSS,"[1]; GA-R, 24 mo Rx",1.57 ± 1.0
same,Mean ARR,"[1]; GA-R, Pre-Rx",0.67 ± 0.46
same,Mean EDSS,"[1]; GA-R, Pre-Rx",2.18 ± 1.08
same,decrease in the EDSS,"[1]; GA-R, during treatment",0.61 point
same,reduction in the ARR,"[1]; GA-R, during treatment",79%
same,"Serum BDNF levels, change during GA treatment",BDNF,did not show significant changes during treatment from baseline in either group
